Test results as given in US4423242A, “Pharmaceutical amides, and preparation, formulations and use of thereof” (The Wellcome Foundation Ltd., priority 1981, dated 1983).
Where a name gives a salt, the structure may show the parent alone.

test system: ACE versus enkephalinase; assay: not given; settings: reported by Swerts et al.; ACE vs enkephalinase; cited from earlier work

| SMILES | concentration required to inhibit ACE by 50% lower than that required for the same degree of inhibition of enkephalinase |
| --- | --- |
| C[C@H](CS)C(=O)N1CCC[C@H]1C(=O)O [Captopril, 1-(D-3-mercapto-2-methylpropanoyl)-L-proline (S,S), reference compound] | approximately 1000 fold |

biological target: T1, purified enkephalinase Al (Rattus norvegicus, UniProt P07861); assay: Enkephalinase-inhibiting activity in vitro (inhibition of 3H-TGG generation from 3H-leucine enkephalin); format: biochemical; settings: approximate, determined graphically; leucine enkephalin 5×10^-5 M; 30° C.; 30 min with enzyme; read-out: IC50 (concentration of test compound required for 50% inhibition of 3H-TGG generation)
T1 construct: the solubilised enzymes contained in the supernatant separated by DEAE-cellulose column chromatography; from tissue; host or cells: rat striatum, washed membrane pellet solubilised with Triton X-100, DEAE-cellulose then Sephacryl S.300
T1 sequence (P07861 1-750): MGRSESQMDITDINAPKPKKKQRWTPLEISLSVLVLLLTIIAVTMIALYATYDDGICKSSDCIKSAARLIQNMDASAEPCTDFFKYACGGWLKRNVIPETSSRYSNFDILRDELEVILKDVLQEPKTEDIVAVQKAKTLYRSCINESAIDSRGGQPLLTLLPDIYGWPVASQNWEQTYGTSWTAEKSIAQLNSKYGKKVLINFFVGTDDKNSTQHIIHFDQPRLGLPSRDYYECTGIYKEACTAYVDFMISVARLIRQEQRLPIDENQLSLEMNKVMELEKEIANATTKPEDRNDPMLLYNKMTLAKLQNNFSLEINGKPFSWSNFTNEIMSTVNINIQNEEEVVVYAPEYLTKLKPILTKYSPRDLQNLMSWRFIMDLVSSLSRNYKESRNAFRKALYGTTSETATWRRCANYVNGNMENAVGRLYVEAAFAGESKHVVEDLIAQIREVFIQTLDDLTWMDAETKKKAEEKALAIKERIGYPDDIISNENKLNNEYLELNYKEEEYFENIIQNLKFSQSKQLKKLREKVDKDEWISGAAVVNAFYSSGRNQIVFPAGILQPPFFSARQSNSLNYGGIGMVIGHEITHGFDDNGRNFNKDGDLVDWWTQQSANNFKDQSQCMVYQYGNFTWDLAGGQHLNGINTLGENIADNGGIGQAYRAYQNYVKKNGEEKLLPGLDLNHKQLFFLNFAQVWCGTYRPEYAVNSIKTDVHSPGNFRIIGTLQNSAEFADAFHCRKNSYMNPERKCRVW
Protocol: The compounds were investigated for enkephalinase-inhibiting activity using the following method.
Purified enkephalinase Al was obtained according to the following procedure (modification of the method of Gorenstein and Snyder, Life Science, Vol. 25, pages 2065-2070, 1979).
Rats were killed by decapitation and the striata dissected out on ice. The pooled tissues were homogenised in ice-cold Tris/hydrochloric acid buffer (50 mM, pH 7.70, 30 ml per gram of tissue) and centrifuged (50,000 g, 15 mins). The resulting supernatent was discarded and the remaining pellet washed three times. The washed pellet was solubilised by resuspension in half the volume of buffer as before containing 1.0% (v/v) Triton X-100 and incubated at 37° C. for 45 mins. The suspension was then centrifuged at 100,000 g for 60 mins and the solubilised enzymes contained in the supernatant separated by DEAE-cellulose column chromatography. Enkephalinase Al was further purified by Sephacryl S.300 chromatography.
Enkephalinase-inhibiting activity was estimated by the following procedure. 1.75 μl of leucine enkephalin (0.317 mg/ml), 0.5 μl of ^3 H-leucine enkephalin (tyrosyl-3,5-^3 H Enkephalin (5-L-Leucine), The Radiochemical Centre, Amersham, England) and 5.75 μl of buffer as before were incubated at 30° C. for 10 mins with 2 μl of either a solution of test compound (in either 50% ethanol/0.1 M sodium hydrogen carbonate or distilled water) or solvent alone as control. 10 μl of purified enkephalinase Al at 30° C. were added and incubation then continued for a further 30 mins (total incubation time 40 mins, final leucine enkephalin concentration 5×10^-5 M, final ^3 H-leucine enkephalin concentration 12.5 μCi/ml). At the completion of incubation 3 μl of 0.16 M hydrochloric acid was added and the incubation mixture cooled on ice.
Separation of (a) unchanged ^3 H-leucine enkephalin and (b) ^3 H-Tyr-Gly-Gly-OH (^3 H-TGG), generated from (a) by enkephalinase Al in the incubation mixture was effected by thin layer chromatography (plastic silica gel plates of 0.1 mm layer chromatography (plastic silica gel plates of 0.1 mm layer thickness, solvent system ethyl acetate: propan-2-ol: 5% (v/v) acetic acid, 2:2:1) using solutions of the cold compounds as carriers. After drying the materials were visualized with ninhydrin and appropriate areas of the plates cut out and placed in scintillation vials containing 50% methanol/0.1 M hydrochloric acid to elute the ^3 H label. Biofluor reagent (10 ml) was then added and the radioactivity determined by liquid scintillation counting.
The ^3 H-TGG generated in the presence of test compound (expressed as a percentage of the control figure) was then calculated and an approximate IC50 figure (concentration of test compound required for 50% inhibition of ^3 H-TGG generation) then determined graphically.

| SMILES | IC50 [µM] |
| --- | --- |
| COc1ccc(CC(C(=O)N[C@@H](CC(C)C)C(=O)O)P(=O)(O)O)cc1 (single isomer, unassigned) [Compound No. 1, N-[2-(Dihydroxyphosphinyl)-3-(4-methoxyphenyl)propionyl]-L-leucine] | 1.8 |
| CCOC(=O)[C@H](CC(C)C)NC(=O)C(Cc1ccccc1)CP(=O)(O)O (single isomer, unassigned) [compound 11] | 0.68 |
| CCOC(=O)[C@H](CC(C)C)NC(=O)C(Cc1ccccc1)CP(=O)(O)O (single isomer, unassigned) [compound 12] | 100 |
| CC(C)C[C@H](NC(=O)C(Cc1ccccc1)CP(=O)(O)O)C(=O)O (single isomer, unassigned) [compound 13, N-[2-Benzyl-3-(dihydroxyphosphinyl)propionyl]leucine] | 0.16 |
| CC(C)C[C@H](NC(=O)C(Cc1ccccc1)CP(=O)(O)O)C(=O)O (single isomer, unassigned) [compound 14, N-[2-Benzyl-3-(dihydroxyphosphinyl)propionyl]leucine] | 18 |
| C[C@H](CS)C(=O)N1CCC[C@H]1C(=O)O [Captopril, 1-(D-3-mercapto-2-methylpropanoyl)-L-proline (S,S), reference compound] | 30 |
| CC(C)C[C@H](NC(=O)C(Cc1ccccc1)P(=O)(O)O)C(=O)O (stereo partly drawn) [Compound No. 7, N-[2-(Dihydroxyphosphinyl)-3-phenylpropionyl]-L-leucine tri-lithium salt] | 0.68 |
| CC(C)C[C@H](NC(=O)C(Cc1ccc(Br)cc1)P(=O)(O)O)C(=O)O (stereo partly drawn) [Compound No. 9, N-[3-(4-bromophenyl)-2-dihydroxyphosphinylpropionyl]-L-leucine, monosodium salt] | 6.8 |
| CC(C)C[C@H](NC(=O)C(Cc1ccc(C(C)C)cc1)P(=O)(O)O)C(=O)O (stereo partly drawn) [Compound No. 10, N-[2-dihydroxyphosphinyl-3-(4-isopropylphenyl)propionyl]-L-leucine, disodium salt] | 23 |
| CCOC(=O)[C@H](CC(C)C)NC(=O)C(Cc1ccccc1)P(=O)(O)O (stereo partly drawn) [compound 4, N-[2-(Dihydroxyphosphinyl)-3-phenylpropionyl.-L-leucine] ethyl ester] | 0.6 |
| CCOC(=O)[C@H](CC(C)C)NC(=O)C(Cc1ccccc1)P(=O)(O)O (stereo partly drawn) [compound 5, N-[2-(Dihydroxyphosphinyl)-3-phenylpropionyl.-L-leucine] ethyl ester] | 1.5 |
| CC(C)C[C@H](NC(=O)C(Cc1ccccc1)P(=O)(O)O)C(=O)O (stereo partly drawn) [compound 6, N-[2-(Dihydroxyphosphinyl)-3-phenylpropionyl]-L-leucine tri-lithium salt] | 0.13 |

same assay, conditions: no effect at 3 × 10^-5; leucine enkephalin 5×10^-5 M; 30° C.; 30 min with enzyme; read-out: IC50 (footnote symbol: no effect)

| SMILES | IC50 [µM] |
| --- | --- |
| CCOC(=O)[C@H](CC(C)C)NC(=O)C(Cc1ccccc1)P(=O)(OCC)OCC (stereo partly drawn) [compound 2, N-[2-(Diethoxyphosphinyl)-3-phenylpropionyl]-L-leucine ethyl ester] | > 30 |
| CCOP(=O)(OCC)C(Cc1ccccc1)C(=O)N[C@@H](CC(C)C)C(=O)O (stereo partly drawn) [compound 8, N-[2-(Diethoxyphosphinyl)-3-phenylpropionyl]-L-leucine] | > 30 |
